Experimental data: patent US20240024293A1, “NOMETHIAZOLES AS A TREATMENT FOR RETT SYNDROME” (REVIVO THERAPEUTICS, priority 2019, published 2024)
Counter-ions that a name gives are not always drawn.

What was measured:
Mecp2 female mice (HET) [1] = test: NeuroCube gait analysis in RETT mouse model; type: in vivo
Method: (§1) Experiments employed wild type (WT) mice and Mecp2 female mice (HET) that were provided by The Jackson Laboratory, Bar Harbor, ME.
(§2) Breeding of the experimental mice were done at The Jackson Laboratories and were shipped at approximately 5 weeks of age. Dosing experiments were conducted at approximately 6 weeks of age.
(§3) Treatment Groups (N=20) were as follow: • WT—Vehicle • HET—Vehicle • HET—RIV-0561 (1.35 mg/kg; ip QD)+0.675 mg/ml of RIV-0561 in drinking water • HET—RIV-0561 (13.5 mg/kg; ip QD)+0.675 mg/ml of RIV-0561 in drinking water
(§4) NeuroCube® and Startle experiments were conducted when mice were at 8 and 12 weeks of age. All tests were conducted within 2 hours post IP dosing.
NeuroCube® system is a proprietary gait analysis system. The platform employs computer vision to detect changes in gait geometry and gait dynamics in rodent models of neurological disorders, pain, and neuropathies. This platform is unique for gait testing for the following reasons: (1) it is completely automated and thus removes any bias or subjectivity; (2) the system captures both gait geometry and gait dynamics (stance, swing, propulsion, etc.); and (3) the sensitivity of the computer vision and bioinformatics allow the capture of symptoms of the disease model earlier and more accurately.
Mice are placed in the NeuroCube® for a 5-min test. The most dominant features that define the disease phenotype (symptom descriptors) are identified and ranked. Complex bioinformatics algorithms are employed to calculate the discrimination probability between WT and HET mice and can thus detect a test compound's ability to reverse the disease phenotype.

Mecp2 female mice (HET) [2] = test: Acoustic startle response in RETT mouse model; type: in vivo; settings: HET mice at 8 weeks of age; all doses tested (1.35 or 13.5 mg/kg ip QD + 0.675 mg/ml in drinking water); FIG. 2
Method: as §1, §2, §3, §4
The acoustic startle measures an unconditioned reflex response to external auditory stimulation. Mice were placed in the startle enclosures and secured in the sound-attenuated startle chamber (Med Associates Inc., St Albans, VT) on top of a force transducer plate that measures the force of the movements made by the mouse for a 5 min habituation period of white noise (70 dB). Subsequent test sessions consisted of 10 blocks of eleven trials each. Within each block, stimuli of 70, 75, 80, 85, 90, 95, 100, 105, 110, 115, and 120 dB were presented in a random order with a variable inter-trial interval of mean 15 sec (10-20 sec). […] Responses were recorded for 150 ms from startle onset and were sampled every ms. […]

[3] = Gait features at 12 weeks, HET mice, dose not given

Cc1ncsc1CCO[N+](=O)[O-] [RIV-5061, 2-(4-methylthiazol-5-yl)ethyl nitrate maleate]
% Recovery, Body Motion (Mecp2 female mice (HET) [1]; [3]): 19% | % Recovery, Gait Dynamic and Geometry (Mecp2 female mice (HET) [1]; [3]): 53% | % Recovery, Overall Gait (Mecp2 female mice (HET) [1]; [3]): 24% | % Recovery, Paw Features (Mecp2 female mice (HET) [1]; [3]): 63% | % Recovery, Paw Positioning (Mecp2 female mice (HET) [1]; [3]): 17% | % Recovery, Rhythmicity (Mecp2 female mice (HET) [1]; [3]): 0% | Improvement of important gait features (up to) (Mecp2 female mice (HET) [1]; RETT mice, after 12 weeks of treatment, particularly at the lower dose (1.35 mg/kg IP daily + 0.675 mg/ml in drinking water)): > 60% | Startle response (Mecp2 female mice (HET) [2]): tendency to improve startle response
